Patent publication US20090275583A1, “ANTIVIRAL COMPOUNDS AND USE THEREOF” (Myriad Genetics, Incorporated, priority 2006, published 2009)
Where two headings read alike, the source gives them in different places.

Test system: HIV-1NL4-3
Test: P4-MAGI assay
Type: cell-based
Excerpt: P4 cells were used to test the effects of compounds on virus fusion activity. P4 cells are HIV-1 infectable CD4^+ HeLa cells that bear the bacterial lacZ gene under the control of a minimal HIV-1 LTR. Charneau, et. al., J. Mol. Biol. 241:651-662 (1994). When these cells are infected with HIV-1, β-galactosidase is expressed due to Tat activation of the viral LTR. In this assay, P4 cells were infected with the laboratory adapted strain HIV-1NL4-3 at a multiplicity of infection of 1 in the presence of DEAE-Dextran. Immediately after addition of virus to the cells, increasing concentrations of compound were added to the cells. […] The effect on cell viability (TC50, concentration of compound that inhibits growth by 50%) was determined in mock-infected cells with the WST-1 Cell Proliferation Reagent (Roche Diagnostics).

[1] = Human immunodeficiency virus 1, 24 h, P4 cells, 24 hour incubation, β-galactosidase expression, read-out: P4-MAGI IC50
[2] = Human immunodeficiency virus 1, text statement, less than about 100 nm, read-out: P4-MAGI assay IC50

| Compound | IC50 [1] [nM] | IC50 [2] [nM] |
| --- | --- | --- |
| C=C(C)[C@@H]1CC[C@]2(C(=O)NCc3cccc(C(=O)Nc4cccc(C(=O)O)c4)c3)CC[C@]3(C)C(CCC4[C@@]5(C)CC[C@H](O)C(C)(C)C5CC[C@]43C)C12 (some centres unmarked) [Example 15] | 320 | – |
| C=C(C)[C@@H]1CC[C@]2(C(=O)NCc3cccc(C(=O)NCCc4cc(OC)cc(OC)c4)c3)CC[C@]3(C)C(CCC4[C@@]5(C)CC[C@H](O)C(C)(C)C5CC[C@]43C)C12 (some centres unmarked) [Example 44] | 52 | < 100 |
| C=C(C)[C@@H]1CC[C@]2(C(=O)NCc3cccc(CNC(=O)c4cc(C(=O)O)ccc4C(=O)O)c3)CC[C@]3(C)C(CCC4[C@@]5(C)CC[C@H](O)C(C)(C)C5CC[C@]43C)C12 (some centres unmarked) [Example 79] | 412 | – |
| C=C(C)[C@@H]1CC[C@]2(CC(=O)NCc3cccc(C(=O)NCc4cccc(C(=O)O)c4)c3)CC[C@]3(C)C(CCC4[C@@]5(C)CC[C@H](O)C(C)(C)C5CC[C@]43C)C12 (some centres unmarked) [Example 142] | 3400 | – |
| C=C(C)[C@@H]1CC[C@]2(C(=O)N[C@@H](Cc3ccc(OCCCCC(=O)O)cc3)C(=O)O)CC[C@]3(C)C(CCC4[C@@]5(C)CC[C@H](O)C(C)(C)C5CC[C@]43C)C12 (some centres unmarked) [Example 115] | 10000 | – |
| C=C(C)[C@@H]1CC[C@]2(C(=O)NCCc3cccc(C(=O)NCC(=O)O)c3)CC[C@]3(C)C(CCC4[C@@]5(C)CC[C@H](O)C(C)(C)C5CC[C@]43C)C12 (some centres unmarked) [Example 64] | 220 | – |
| C=C(C)[C@@H]1CC[C@]2(C(=O)NCCc3cccc(C(=O)NCc4ccc(OCCCN5CC(C)NC(C)C5)cc4)c3)CC[C@]3(C)C(CCC4[C@@]5(C)CC[C@H](O)C(C)(C)C5CC[C@]43C)C12 (some centres unmarked) [Example 233] | 70 | – |
| C=C(C)[C@@H]1CC[C@]2(C(=O)NCc3cccc(N4CCN(Cc5cccc(C(=O)O)c5)CC4)c3)CC[C@]3(C)C(CCC4[C@@]5(C)CC[C@H](O)C(C)(C)C5CC[C@]43C)C12 (some centres unmarked) [Example 118] | 458 | – |
| C=C(C)[C@@H]1CC[C@]2(C(=O)NCc3cccc(-c4nc(-c5cccc(C(=O)O)c5)no4)c3)CC[C@]3(C)C(CCC4[C@@]5(C)CC[C@H](O)C(C)(C)C5CC[C@]43C)C12 (some centres unmarked) [Example 127] | 768 | – |
| C=C(C)[C@@H]1CC[C@]2(C(=O)NCCc3cccc(C(=O)NCc4ccc(OCCCn5cnc(C(=O)O)c5)c(C(=O)O)c4)c3)CC[C@]3(C)C(CCC4[C@@]5(C)CC[C@H](O)C(C)(C)C5CC[C@]43C)C12 (some centres unmarked) [Example 247] | 417 | – |
| CC(O)(CO)[C@@H]1CC[C@]2(C(=O)NCc3cccc(C(=O)NCCCCC(=O)O)c3)CC[C@]3(C)C(CCC4[C@@]5(C)CC[C@H](O)C(C)(C)C5CC[C@]43C)C12 (single isomer, unassigned) [Example 139] | 1500 | – |
| C=C(C)[C@@H]1CC[C@]2(C(=O)NCc3cccc(C(=O)NCCc4cccc(C(=O)O)c4)c3)CC[C@]3(C)C(CCC4[C@@]5(C)CC[C@H](O)C(C)(C)C5CC[C@]43C)C12 (some centres unmarked) [Example 11] | 55 | < 100 |
| C=C(C)[C@@H]1CC[C@]2(C(=O)NCc3cccc(-c4nc5cc(C(=O)O)ccc5[nH]4)c3)CC[C@]3(C)C(CCC4[C@@]5(C)CC[C@H](O)C(C)(C)C5CC[C@]43C)C12 (some centres unmarked) [Example 126] | 66 | < 100 |
| C=C(C)[C@@H]1CC[C@]2(C(=O)NCc3cccc(C(=O)NCc4cccc(C(=O)O)c4C)c3C)CC[C@]3(C)C(CCC4[C@@]5(C)CC[C@H](O)C(C)(C)C5CC[C@]43C)C12 (some centres unmarked) [Example 81] | 6200 | – |
| C=C(C)[C@@H]1CC[C@]2(C(=O)Nc3cccc(C(=O)NCCc4cccc(C(=O)O)c4)c3)CC[C@]3(C)C(CCC4[C@@]5(C)CC[C@H](O)C(C)(C)C5CC[C@]43C)C12 (some centres unmarked) [Example 85] | 10000 | – |
| C=C(C)[C@@H]1CC[C@]2(C(=O)NCCc3ccccc3C(=O)NCCCCCCC(=O)O)CC[C@]3(C)C(CCC4[C@@]5(C)CC[C@H](O)C(C)(C)C5CC[C@]43C)C12 (some centres unmarked) [Example 55] | 4700 | – |
| C=C(C)[C@@H]1CC[C@]2(C(=O)NCc3cccc(C(=O)NCc4cc(C(=O)O)ccn4)c3)CC[C@]3(C)C(CCC4[C@@]5(C)CC[C@H](O)C(C)(C)C5CC[C@]43C)C12 (some centres unmarked) [Example 31] | 573 | – |
| C=C(C)[C@@H]1CC[C@]2(C(=O)NCc3cccc(C(=O)NCc4ccc(OCCCN(C)CCN(C)C)c(C(=O)OC)c4)c3)CC[C@]3(C)C(CCC4[C@@]5(C)CC[C@H](O)C(C)(C)C5CC[C@]43C)C12 (some centres unmarked) [Example 122] | 265 | – |
| C=C(C)[C@@H]1CC[C@]2(C(=O)NCc3cc(C(=O)NCc4cccc(C(=O)OC)c4F)ccc3F)CC[C@]3(C)C(CCC4[C@@]5(C)CC[C@H](O)C(C)(C)C5CC[C@]43C)C12 (some centres unmarked) [Example 182] | 600 | – |
| C=C(C)[C@@H]1CC[C@]2(C(=O)NCCc3cccc(C(=O)NCC4CCCN4C(=O)OC(C)(C)C)c3)CC[C@]3(C)C(CCC4[C@@]5(C)CC[C@H](O)C(C)(C)C5CC[C@]43C)C12 (some centres unmarked) [Example 203] | 856 | – |
| C=C(C)[C@@H]1CC[C@]2(C(=O)NCCc3cccc(C(=O)NCC4CCCN4)c3)CC[C@]3(C)C(CCC4[C@@]5(C)CC[C@H](O)C(C)(C)C5CC[C@]43C)C12 (some centres unmarked) [Example 204] | 1940 | – |

| Compound | IC50 [1] [nM] | IC50 [2] [nM] |
| --- | --- | --- |
| C=C(C)[C@@H]1CC[C@]2(C(=O)NCc3ccc(F)c(C(=O)NCCc4ccc(C(=O)OC)cc4)c3)CC[C@]3(C)C(CCC4[C@@]5(C)CC[C@H](O)C(C)(C)C5CC[C@]43C)C12 (some centres unmarked) [Example 104] | 350 | – |
| C=C(C)[C@@H]1CC[C@]2(C(=O)NCCc3ccc(OCCCCC(=O)O)cc3)CC[C@]3(C)C(CCC4[C@@]5(C)CC[C@H](O)C(C)(C)C5CC[C@]43C)C12 (some centres unmarked) [Example 112] | 317 | – |
| C=C(C)[C@@H]1CC[C@]2(C(=O)NCCc3cc(C(=O)NCc4ccc(C(=O)O)cn4)ccc3F)CC[C@]3(C)C(CCC4[C@@]5(C)CC[C@H](O)C(C)(C)C5CC[C@]43C)C12 (some centres unmarked) [Example 263] | 198 | – |
| C=C(C)[C@@H]1CC[C@]2(C(=O)NCCc3cccc(C(=O)N[C@@H](CCC(=O)OC)C(N)=O)c3)CC[C@]3(C)C(CCC4[C@@]5(C)CC[C@H](O)C(C)(C)C5CC[C@]43C)C12 (some centres unmarked) [Example 77] | 106 | – |
| C=C(C)[C@@H]1CC[C@]2(C(=O)NCc3cccc(C(=O)NC4(Cc5ccc(C(=O)O)cc5)CC4)c3)CC[C@]3(C)C(CCC4[C@@]5(C)CC[C@H](O)C(C)(C)C5CC[C@]43C)C12 (some centres unmarked) [Example 28] | 1200 | – |
| C=C(C)[C@@H]1CC[C@]2(C(=O)NCc3cccc(C(=O)NCc4ccc(OCC(=O)O)c(C(=O)O)c4)c3)CC[C@]3(C)C(CCC4[C@@]5(C)CC[C@H](O)C(C)(C)C5CC[C@]43C)C12 (some centres unmarked) [Example 120] | 620 | – |
| C=C(C)[C@@H]1CC[C@]2(C(=O)NCc3cc(C(=O)NCCc4ccc(S(N)(=O)=O)cc4)ccc3F)CC[C@]3(C)C(CCC4[C@@]5(C)CC[C@H](O)C(C)(C)C5CC[C@]43C)C12 (some centres unmarked) [Example 259] | 175 | – |
| C=C(C)[C@@H]1CC[C@]2(C(=O)NCc3cc(C(=O)NCc4ccc(N(C)C)cc4)ccc3F)CC[C@]3(C)C(CCC4[C@@]5(C)CC[C@H](O)C(C)(C)C5CC[C@]43C)C12 (some centres unmarked) [Example 180] | 1000 | – |
| C=C(C)[C@@H]1CC[C@]2(C(=O)NCCc3ccccc3C(=O)NCCCCC(=O)O)CC[C@]3(C)C(CCC4[C@@]5(C)CC[C@H](O)C(C)(C)C5CC[C@]43C)C12 (some centres unmarked) [Example 54] | 3400 | – |
| C=C(C)[C@@H]1CC[C@]2(C(=O)N[C@@H](Cc3ccc(OCCN4CCOC4=O)cc3)C(=O)O)CC[C@]3(C)C(CCC4[C@@]5(C)CC[C@H](O)C(C)(C)C5CC[C@]43C)C12 (some centres unmarked) [Example 116] | 177 | – |
| C=C(C)[C@@H]1CC[C@]2(C(=O)NCc3cccc(-c4noc(Cc5ccc(-c6nnn[nH]6)cc5)n4)c3)CC[C@]3(C)C(CCC4[C@@]5(C)CC[C@H](O)C(C)(C)C5CC[C@]43C)C12 (some centres unmarked) [Example 277] | 10000 | – |
| CC(O)(CN1CCCC1)[C@@H]1CC[C@]2(C(=O)NCc3cccc(C(=O)NCCCCC(=O)O)c3)CC[C@]3(C)C(CCC4[C@@]5(C)CC[C@H](O)C(C)(C)C5CC[C@]43C)C12 (some centres unmarked) [Example 138] | 550 | – |
| C=C(C)[C@@H]1CC[C@]2(C(=O)NCCc3cccc(C(=O)NCC4(C(=O)O)CC4)c3)CC[C@]3(C)C(CCC4[C@@]5(C)CC[C@H](O)C(C)(C)C5CC[C@]43C)C12 (some centres unmarked) [Example 219] | 396 | – |
| C=C(C)[C@@H]1CC[C@]2(C(=O)NCc3ccc(C(=O)NCc4ccc(C(=O)O)o4)o3)CC[C@]3(C)C(CCC4[C@@]5(C)CC[C@H](O)C(C)(C)C5CC[C@]43C)C12 (some centres unmarked) [Example 90] | 6500 | – |
| C=C(C)[C@@H]1CC[C@]2(C(=O)NCCc3cccc(C(=O)NC4CCC(C(=O)O)CC4)c3)CC[C@]3(C)C(CCC4[C@@]5(C)CC[C@H](O)C(C)(C)C5CC[C@]43C)C12 (some centres unmarked) [Example 209] | 356 | – |
| C=C(C)[C@@H]1CC[C@]2(C(=O)NCCc3cccc(C(=O)NCc4ccc(OCCCN5CCNCC5)cc4)c3)CC[C@]3(C)C(CCC4[C@@]5(C)CC[C@H](O)C(C)(C)C5CC[C@]43C)C12 (some centres unmarked) [Example 238] | 678 | – |
| C=C(C)[C@@H]1CC[C@]2(C(=O)NCCc3cccc(C(=O)NC(Cc4ccc(O)cc4)C(=O)O)c3)CC[C@]3(C)C(CCC4[C@@]5(C)CC[C@H](O)C(C)(C)C5CC[C@]43C)C12 (some centres unmarked) [Example 145] | 1100 | – |
| C=C(C)[C@@H]1CC[C@]2(C(=O)NCc3ccc(C(=O)NCc4ccc(C(=O)OC)o4)o3)CC[C@]3(C)C(CCC4[C@@]5(C)CC[C@H](O)C(C)(C)C5CC[C@]43C)C12 (some centres unmarked) [Example 89] | 2300 | – |
| C=C(C)[C@@H]1CC[C@]2(C(=O)NCc3cccc(-c4cccc(C(=O)N[C@@H](CC(C)C)[C@@H](O)CC(=O)O)c4)c3)CC[C@]3(C)C(CCC4[C@@]5(C)CC[C@H](O)C(C)(C)C5CC[C@]43C)C12 (some centres unmarked) [Example 129] | 3600 | – |
| C=C(C)[C@@H]1CC[C@]2(C(=O)NCc3ccc(C(=O)OC)o3)CC[C@]3(C)C(CCC4[C@@]5(C)CC[C@H](O)C(C)(C)C5CC[C@]43C)C12 (some centres unmarked) [Example 87] | 1400 | – |
